We go through 6 molecules from paper PMC6628920 (Chemico-biological interactions, 2018).

Series [1] addresses T1, recombinant UGT1A1 (Homo sapiens, UniProt P22309).
T1 sequence (P22309 26-533): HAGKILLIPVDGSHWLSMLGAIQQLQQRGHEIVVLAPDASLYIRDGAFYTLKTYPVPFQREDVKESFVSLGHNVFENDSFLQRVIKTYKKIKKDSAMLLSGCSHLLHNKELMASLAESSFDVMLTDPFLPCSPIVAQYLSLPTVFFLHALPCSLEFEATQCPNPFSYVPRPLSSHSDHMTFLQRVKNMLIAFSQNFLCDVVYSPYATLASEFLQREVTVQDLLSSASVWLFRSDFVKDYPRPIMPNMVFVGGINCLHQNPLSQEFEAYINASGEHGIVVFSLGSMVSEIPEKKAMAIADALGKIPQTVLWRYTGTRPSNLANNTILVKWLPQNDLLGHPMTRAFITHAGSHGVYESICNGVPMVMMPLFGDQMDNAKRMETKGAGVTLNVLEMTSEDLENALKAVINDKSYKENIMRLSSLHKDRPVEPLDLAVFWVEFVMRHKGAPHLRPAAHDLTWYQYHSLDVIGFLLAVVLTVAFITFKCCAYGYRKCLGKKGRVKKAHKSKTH
The series is described as follows: Kinetics of cycloicaritin-3-O-glucuronidation by recombinant UGT1A1. Format: in vitro ADME. As to conditions: Hill equation.

For series [2], the target named is T2, HeLa1A1 cell lysate (Homo sapiens, UniProt P22309).
T2 sequence (P22309 26-533): T1 sequence (P22309 26-533)
The series is described as follows: Kinetics of cycloicaritin-3-O-glucuronidation by HeLa1A1 cell lysate. Type of series: in vitro ADME. As to conditions: Hill equation.

Series [3] in a line: Metabolite formation from cycloicaritin by wild-type HeLa cell lysate. Format: in vitro ADME, human. As to conditions: cycloicaritin 8 μM, 2 h.
Series [4] concerns the target T2, HeLa1A1 cell lysate. The series is described as follows: Chemical inhibition of cycloicaritin-3-O-glucuronidation by HeLa1A1 cell lysate. Format: biochemical. As to conditions: cycloicaritin 8 μM.
Series [5] deals with T1, recombinant UGT1A1. The experiment in a line: Chemical inhibition of cycloicaritin-3-O-glucuronidation by recombinant UGT1A1. Format: biochemical. As to conditions: cycloicaritin 8 μM.
For another series, the system named is MRPs. The series is described as follows: Effects of MRPs inhibitors on excretion of CICT-3-G in HeLa1A1 cells. Format: cell-based, human. As to conditions: inhibitor 0.05 and 0.2 μM, cycloicaritin 8 μM.
For series [6] the following is noted: cited from earlier work.
For series [7] the following is noted: cited from earlier work. The source holds these as a separate data set.
Another series concerns the target MRP1 (Homo sapiens, UniProt P33527). Format: in vitro ADME.
In another series the target is T3, MRP4 (Homo sapiens, UniProt O15439).
T3 sequence (O15439 1-1325): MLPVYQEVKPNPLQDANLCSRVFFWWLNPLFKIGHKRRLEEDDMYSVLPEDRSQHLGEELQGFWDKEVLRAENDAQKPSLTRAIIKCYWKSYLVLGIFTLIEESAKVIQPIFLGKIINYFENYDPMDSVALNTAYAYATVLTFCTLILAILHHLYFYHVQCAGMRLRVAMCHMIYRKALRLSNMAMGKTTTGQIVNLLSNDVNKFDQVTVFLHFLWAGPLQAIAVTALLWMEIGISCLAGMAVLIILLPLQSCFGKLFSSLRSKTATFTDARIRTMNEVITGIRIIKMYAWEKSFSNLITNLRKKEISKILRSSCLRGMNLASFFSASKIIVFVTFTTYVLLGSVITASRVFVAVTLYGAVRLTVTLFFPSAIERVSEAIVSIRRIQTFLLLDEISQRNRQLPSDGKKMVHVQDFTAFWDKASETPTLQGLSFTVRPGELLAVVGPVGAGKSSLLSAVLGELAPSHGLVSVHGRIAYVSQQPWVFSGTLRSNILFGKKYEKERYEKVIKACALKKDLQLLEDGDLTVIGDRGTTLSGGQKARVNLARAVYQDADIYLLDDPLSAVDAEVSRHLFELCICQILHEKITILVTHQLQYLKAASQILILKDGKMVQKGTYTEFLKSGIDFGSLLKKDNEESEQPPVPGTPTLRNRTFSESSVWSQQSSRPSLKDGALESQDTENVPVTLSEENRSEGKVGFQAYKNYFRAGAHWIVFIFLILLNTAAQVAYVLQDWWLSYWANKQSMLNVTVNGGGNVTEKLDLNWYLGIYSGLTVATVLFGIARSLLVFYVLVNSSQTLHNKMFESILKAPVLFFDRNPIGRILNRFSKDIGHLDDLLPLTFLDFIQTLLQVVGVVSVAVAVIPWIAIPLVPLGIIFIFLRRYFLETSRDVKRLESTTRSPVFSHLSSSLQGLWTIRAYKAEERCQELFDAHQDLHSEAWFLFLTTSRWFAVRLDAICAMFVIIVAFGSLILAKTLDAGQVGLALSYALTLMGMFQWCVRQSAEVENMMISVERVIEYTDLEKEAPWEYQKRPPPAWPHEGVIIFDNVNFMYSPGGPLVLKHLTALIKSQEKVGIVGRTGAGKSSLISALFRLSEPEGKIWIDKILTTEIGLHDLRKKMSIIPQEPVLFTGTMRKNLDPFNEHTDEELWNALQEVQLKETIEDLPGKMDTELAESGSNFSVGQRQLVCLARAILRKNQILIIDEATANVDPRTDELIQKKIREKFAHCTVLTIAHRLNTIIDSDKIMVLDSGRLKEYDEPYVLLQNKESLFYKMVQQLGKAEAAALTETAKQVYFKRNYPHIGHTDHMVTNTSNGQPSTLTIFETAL
Type of series: in vitro ADME.

MRP1, sequence (P33527 whole entry): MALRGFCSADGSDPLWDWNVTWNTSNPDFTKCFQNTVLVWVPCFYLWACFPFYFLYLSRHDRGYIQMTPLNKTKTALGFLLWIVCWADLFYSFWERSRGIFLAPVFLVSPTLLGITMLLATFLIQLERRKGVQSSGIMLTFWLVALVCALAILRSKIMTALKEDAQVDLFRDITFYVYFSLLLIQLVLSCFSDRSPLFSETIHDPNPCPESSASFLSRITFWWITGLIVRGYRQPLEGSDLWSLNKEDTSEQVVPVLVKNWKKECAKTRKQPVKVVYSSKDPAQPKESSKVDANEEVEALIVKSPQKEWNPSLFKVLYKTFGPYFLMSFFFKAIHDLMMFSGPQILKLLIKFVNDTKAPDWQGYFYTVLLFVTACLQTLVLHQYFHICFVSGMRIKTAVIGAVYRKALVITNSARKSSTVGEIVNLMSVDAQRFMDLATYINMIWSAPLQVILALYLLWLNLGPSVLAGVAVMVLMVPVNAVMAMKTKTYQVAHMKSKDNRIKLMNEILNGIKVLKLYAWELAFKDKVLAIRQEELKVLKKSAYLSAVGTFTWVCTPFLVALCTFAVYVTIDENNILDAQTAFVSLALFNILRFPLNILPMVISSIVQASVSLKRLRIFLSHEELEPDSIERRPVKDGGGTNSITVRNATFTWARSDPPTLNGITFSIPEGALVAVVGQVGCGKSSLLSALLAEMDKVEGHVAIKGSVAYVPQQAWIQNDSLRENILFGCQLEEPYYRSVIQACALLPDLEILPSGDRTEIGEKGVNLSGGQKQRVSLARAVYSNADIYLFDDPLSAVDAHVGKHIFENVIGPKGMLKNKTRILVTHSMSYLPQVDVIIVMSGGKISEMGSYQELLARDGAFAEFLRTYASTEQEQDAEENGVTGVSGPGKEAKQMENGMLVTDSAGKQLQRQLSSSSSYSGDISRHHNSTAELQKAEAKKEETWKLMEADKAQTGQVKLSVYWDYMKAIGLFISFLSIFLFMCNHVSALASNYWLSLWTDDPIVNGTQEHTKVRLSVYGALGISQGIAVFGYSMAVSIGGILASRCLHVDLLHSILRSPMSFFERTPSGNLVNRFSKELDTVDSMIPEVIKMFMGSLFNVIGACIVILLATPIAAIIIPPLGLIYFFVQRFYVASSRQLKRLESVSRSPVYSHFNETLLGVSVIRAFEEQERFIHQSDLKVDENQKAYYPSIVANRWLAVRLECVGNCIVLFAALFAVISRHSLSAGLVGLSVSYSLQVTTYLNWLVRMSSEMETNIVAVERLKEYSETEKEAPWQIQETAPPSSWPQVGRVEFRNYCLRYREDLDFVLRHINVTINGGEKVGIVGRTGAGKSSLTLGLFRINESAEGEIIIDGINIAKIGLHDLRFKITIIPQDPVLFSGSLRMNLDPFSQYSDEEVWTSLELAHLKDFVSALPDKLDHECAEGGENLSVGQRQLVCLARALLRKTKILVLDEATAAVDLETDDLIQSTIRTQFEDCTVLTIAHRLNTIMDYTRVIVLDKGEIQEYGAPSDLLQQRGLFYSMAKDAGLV

With `COc1ccc(-c2oc3c4c(cc(O)c3c(=O)c2O)OC(C)(C)CC4)cc1` [cycloicaritin, Cycloicaritin], on recombinant UGT1A1 [1], the “CLmax of cycloicaritin-3-O-glucuronidation” value came out at 190 µL/min/mg, the “S50 of cycloicaritin-3-O-glucuronidation” value is 1.43 µM and the “n (Hill coefficient) of cycloicaritin-3-O-glucuronidation” value stood at 1.67 µM. Further, the “Vmax of cycloicaritin-3-O-glucuronidation” value on recombinant UGT1A1 [1] (cycloicaritin 0.1-10 μM) stood at 0.54 nmol/min/mg. Moreover, at HeLa1A1 cell lysate [2], the “CLmax of cycloicaritin-3-O-glucuronidation” value was determined as 17 µL/min/mg, the “S50 of cycloicaritin-3-O-glucuronidation” value stood at 1.19 µM and the “n (Hill coefficient) of cycloicaritin-3-O-glucuronidation” value came out at 1.71 µM. Besides, the “Vmax of cycloicaritin-3-O-glucuronidation” value at HeLa1A1 cell lysate [2] (cycloicaritin 0.1-10 μM) was determined as 0.04 nmol/min/mg. Further, in [3], the “metabolites detected after incubation with cell lysate” value is listed as “no metabolites were detected”.

For the molecule `COc1ccc2c3c([nH]c2c1)[C@H](CC(C)C)N1C(=O)[C@H](CCC(=O)OC(C)(C)C)NC(=O)[C@@H]1C3` [Ko143], the “remaining cycloicaritin-3-O-glucuronidation activity, % of the control values” at HeLa1A1 cell lysate [4] (inhibitor 20 μM) amounted to 8.8%; on recombinant UGT1A1 [5] (inhibitor 20 μM) it was 12.5%.

In the case of `CCCCC/C=C\C\C=C/C=C/C=C/[C@@H](SC[C@H](NC(=O)CC[C@H](N)C(=O)O)C(=O)NCC(=O)O)[C@@H](O)CCCC(=O)O` [LTC4, leukotriene C4], on HeLa1A1 cell lysate [4] (inhibitor 0.05 and 0.2 μM), the “effect on cycloicaritin-3-O-glucuronidation activity” value was “did not alter”. Also, at recombinant UGT1A1 [5] (inhibitor 0.05 and 0.2 μM), the “effect on cycloicaritin-3-O-glucuronidation activity” value was “did not alter”. In the series on MRPs, the “effect on CLapp value of CICT-3-G” value is “no significant changes”, the “effect on fmet value of CICT-3-G” value is “no significant changes”, the “effect on the intracellular level of CICT-3-G” value is listed as “did not alter” and the “effect on the rate of efflux excretion of CICT-3-G” value is “did not alter”.

With `COc1ccc(-c2oc3c(CCC(C)(C)O)c(O)cc(O)c3c(=O)c2O)cc1` [wushanicaritin], the “CLint of glucuronidation in human intestine” value in [6] was more than 180 µL/min/mg. Further, the “CLint of glucuronidation in human liver” value in series [7] is more than 350 µL/min/mg.

Regarding `COc1ccc(-c2oc3c(CC=C(C)C)c(O)cc(O)c3c(=O)c2O)cc1` [icaritin], the “CLint of glucuronidation in human intestine” value in [6] is more than 180 µL/min/mg. Moreover, the “CLint of glucuronidation in human liver” value in [7] was more than 350 µL/min/mg.

In the case of `COc1ccc(-c2oc3c4c(cc(O)c3c(=O)c2O[C@@H]2O[C@H](C(=O)O)[C@@H](O)[C@H](O)[C@H]2O)OC(C)(C)CC4)cc1` [CICT-3-G, cycloicaritin-3-O-glucuronide], the “decrease of the efflux clearance of CICT-3-G” value on MRP1 was 52.0%. Moreover, the “decrease in the efflux clearance of CICT-3-G” value at MRP4 turned out to be 28.7%.
